# What was measured:
# [1] = Singlet oxygen quantum yield; type: physicochemical
# Jurkat cells = assay: Accumulation of free F64PcZn in Jurkat cells; type: cell-based, human; details: free F64PcZn incubated with the cell suspensions
# Source text: If the composite is used also on human skin there is a probability of PS loss by the photoactive foil. In order to protect the human body against undesired phototoxic effects it is important to make sure that the free molecules are not able to enter human cells.
# Laser Phys. 13:22-29 b) M. Regehly , K. Greish, F. Rancan, H. Maeda, B. Röder: Water-soluble polymer conjugates of ZnPP for photodynamic therapy, Bioconjugate Chemistry, 18 (2007) 494-499. c) K. Chen, A. Preuβ, S. Hackbarth, M. Wacker, K. Langer, B. Röder: Novel photosensitizer-protein nanoparticles for Photodynamic Therapy: Photophysical characterization and in vitro investigations, J. Photochem. Photobiol.: B, in press May 2009). It is important to mention that phthalocyanines also belong to the class of tetrapyroles and thus the above comparison is meaningful. Thus, incubating the cell suspensions according to the procedure described in a) Paul A, Hackbarth S, Mölich A, Seifert M, Röder B (2003) Comparative Study on the Photosensitization of Jurkat Cells in vitro by Pheophorbide-a and a Pheophorbide-a Diaminobutane polypropylene-imine Dendrimer Complex. Laser Phys. […]
substance,measurement,setting,value
"1, 4, 8, 11, 15, 18, 22, 25-octafluoro-2, 3, 9, 10, 16, 17, 23, 24-octa-perfluoro-isopropyl-phthalocyanine [F64PcZn]",singlet oxygen quantum yield,[1],around 56%
same,accumulation of the dye inside the cells,Jurkat cells,undetectable accumulation
